According to patent US20190388437A1, “COMPOSITIONS AND METHODS FOR TREATING BONE AND JOINT INFECTIONS” (priority 2014, published 2019):
Converted amounts (≈) assume the structure as drawn. “And” between values parts separate entries of the source, which are not always exact repeats. Identical values can stand only once. Like-named read-outs stand apart in the source and are kept apart here.

Columns and labels:
M. luteus = assay: CLSI broth microdilution MIC, spectrum study; type: cell-based; conditions: Micrococcus luteus
Method: (§1) CLSI broth microdilution (BMD) and anaerobic agar dilution (AD) methods were performed. Modifications of standard test methods included adding 10% human serum, adjusting the medium pH to 5, 6, and 8, and synergy was assessed by the checkerboard method. Mutational rates to R were determined at 4×.

S. aureus [1] = assay: CLSI broth microdilution MIC, spectrum study; type: cell-based; conditions: Staphylococcus aureus
Method: as §1

Corynebacterium spp. = assay: CLSI broth microdilution MIC, spectrum study; type: cell-based
Method: as §1

streptococci = assay: CLSI broth microdilution MIC, spectrum study; type: cell-based
Method: as §1

Enterococci = assay: CLSI broth microdilution MIC, spectrum study; type: cell-based
Method: as §1

[2] = test system: E. brevis, M. catarrhalis and N. meningitidis; assay: CLSI broth microdilution MIC, spectrum study; type: cell-based
Method: as §1

S. pyogenes [SPYO] = assay: Reference broth microdilution susceptibility testing, Canadian isolates; type: cell-based; conditions: Streptococcus pyogenes; all 15 isolates
Text: (§2) To determine a contemporary susceptibility (S) spectrum pattern. 153 GP isolates (123 S. aureus, 15 coagulase-negative staphylococci [CoNS] and 15 S. pyogenes [SPYO]) were collected from 5 Canadian medical centers between 2001 and 2006.

[3] = test system: coagulase-negative staphylococci [CoNS]; assay: as above; type: cell-based; conditions: 15 isolates
Text: as §2

S. aureus [4] = assay: as above; type: cell-based
Text: as §2

[5] = cited from earlier work
[6] = test system: methicillin-resistant S. aureus (MRSA) strain USA 300; assay: CLSI MIC against MRSA strain USA 300; type: cell-based; conditions: Staphylococcus aureus
Method: Pharmacodynamics of CEM-102 against Methicillin-Resistant Staphylococcus aureus Using In vitro Models. A hollow fiber model was used to evaluate CEM-102 resistance potential in methicillin-resistant S. aureus (MRSA) strain USA 300 (Network of Antimicrobial Resistance in Staphylococcus aureus (MRSA), Chantilly, Va.). USA 300 is a highly virulent strain of MRSA and is the most common community-associated MRSA isolate in the USA. MIC values were determined in accordance with Clinical and Laboratory Standards Institute (CLSI).

WT isolates = assay: MIC with 10% human serum added; type: cell-based
Method: as §1

S. aureus [7] = assay: MIC population distribution, 217 S. aureus Canadian isolates; type: cell-based; conditions: 217 Canadian isolates
[8] = Multi-dose bioavailability study, 500 mg TID; type: in vivo, healthy subjects (human)
Method: Multi-dose bioavailability study using FA at 500 mg TID. The pharmacokinetics of multiple oral doses of CEM-102 (sodium fusidate) 500 mg tablets in healthy subjects was evaluated. […] Blood samples for assay of plasma concentrations of CEM-102 and placebo were collected pre-dose on Day 1 and at 24, 48, 72, and 96 hours. […] Plasma concentrations of CEM-102 were assayed at MicroConstants. Inc. in San Diego, Calif., USA using a validated LC/MS/MS method with a lower limit of quantitation (LLOQ) of 20.0 ng/mL.

[9] = Single oral dose bioavailability study, fed/fasted crossover; type: in vivo, healthy subjects (human)
Method: Single oral dose bioavailability study of CEM-102 (sodium fusidate). […] This was a single-center, Phase 1, double-blind, randomized, 3 period, fed/fasted crossover bioequivalence study designed to evaluate the relative bioavailability and safety and tolerability of a single oral dose of CEM-102 500 mg compared to Fucidin® 500 mg in healthy subjects. Subjects were randomized in equal numbers to the 4 treatment sequences (Table 3).
Study Period 1, 2, and 3 (Days 1, 15, and 29): One dose of study drug 500 mg (2×250 mg) of CEM-102 or Fucidin® was given at 8:00 AM (˜30 minutes). On Day 1 of Study Periods 1 and 2 (Days 1 and 15), subjects fasted overnight for at least 10 hours prior to dosing. On Day 1 of Study Period 3 (Day 29), subjects were given a high fat caloric meal which was to be entirely consumed within 30 minutes prior to study drug administration.
Blood samples for assay of plasma concentrations were collected on Days 1, 15 and 29 at pre-dose and 0.5, 1, 1.5, 2, 2.5, 3, 3.5, 4, 6, 8, 12, 16, 24, 36, and 48 hours after the dose. Plasma concentrations were assayed at MicroConstants, Inc. in San Diego, Calif. using a validated liquid chromatography with dual tandem mass spectrometry (LC/MS/MS) method with a lower limit of quantitation (LLOQ) of 20.0 ng/mL

S. aureus [10] = conditions: cited from earlier work
[11] = test system: Gram-negative (GN) species; assay: CLSI broth microdilution / agar dilution MIC, spectrum study; type: cell-based; conditions: all except E. brevis, M. catarrhalis, N. meningitidis
Method: as §1

[12] = test system: Gram-positive (GP) species; assay: as above; type: cell-based
Method: as §1

[13] = in the blood; cited from earlier work

## CC(=O)O[C@H]1C[C@@]2(C)[C@@H](C[C@@H](O)[C@H]3[C@@]4(C)CC[C@@H](O)[C@@H](C)[C@@H]4CC[C@@]32C)/C1=C(\CCC=C(C)C)C(=O)O [FA, fusidic acid]
M. luteus
  MIC: ≤ 0.5 µg/mL
S. aureus [1]
  MIC: 0.25 µg/mL
Corynebacterium spp.
  MIC: ≤ 0.12 µg/mL
streptococci
  MIC range: 16 to 32 µg/mL
Enterococci
  MIC range: 2 to 8 µg/mL
[2]
  MIC: 0.12 to 0.5 µg/mL
S. pyogenes [SPYO]
  MIC: 4 to 8 µg/mL (≈ 7.74 to 15.5 µM)
[3]
  MIC50: 0.12 µg/mL (≈ 0.232 µM)
  MIC90: 16 µg/mL (≈ 31 µM)
S. aureus [4]; 2001-2002
  % at ≤0.5: 95.0%
  No. inhibited at MIC 0.06 μg/mL: 8
  No. inhibited at MIC […]: 29 and 1
  No. inhibited at MIC ≥2 μg/mL: 2
S. aureus [4]; 2001-2006, breakpoint ≤0.5 μg/ml (S) and ≤2 μg/ml (R)
  R rate over time: 5.0-12.2%
S. aureus [4]; 2003-2004
  % at ≤0.5: 92.9%
  MIC50: 0.12 µg/mL (≈ 0.232 µM)
  No. inhibited at MIC 0.06 μg/mL: 6
  No. inhibited at MIC […]: 33
  No. inhibited at MIC ≥2 μg/mL: 3
S. aureus [4]; 2005-2006
  % at ≤0.5: 87.8%
  No. inhibited at MIC 0.06 μg/mL: 2
  No. inhibited at MIC […]: 32 and 2
  No. inhibited at MIC ≥2 μg/mL: 5
S. aureus [4]; Staphylococcus aureus, 2003-2004
  MIC90: 0.12 µg/mL (≈ 0.232 µM)
S. aureus [4]; Staphylococcus aureus, 2005-2006
  MIC90: ≥ 2 µg/mL
S. aureus [4]; Staphylococcus aureus, overall S. aureus population
  MIC90: 0.25 µg/mL (≈ 0.484 µM)
S. aureus [4]; Staphylococcus aureus, 2001-2002
  MIC90: 0.12 µg/mL (≈ 0.232 µM)
S. aureus [4]; Staphylococcus aureus, 2001-2002, read-out: MIC50
  MIC50: 0.12 µg/mL (≈ 0.232 µM)
S. aureus [4]; overall S. aureus population
  R rate: 8.1%
[5]; 500 mg TID, steady state after the 4th day
  Cmax in plasma at steady state: 140 µg/mL
[5]; after the first day of treatment, 500 mg TID
  Cmax in plasma: around 30 ug/ml
[5]; oral
  oral bioavailability: around 98%
[6]
  MIC: 0.25 µg/mL (≈ 0.484 µM)
WT isolates
  increase in MIC when 10% serum was added: 4 fold
S. aureus [7]
  resistance rate (for CEM-102: isolates with MICs of ≥2.0 μg/mL): 6.5%
[8]; human, in vivo, 500 mg
  Cmaxss, geometric mean (CV %): 145680 (25.3) ng/mL
  t½ss, arithmetic mean ± SD: approximately 19 h
[8]; prior to dosing on Day 5, 500 mg TID
  Trough level: 105 µg/mL
[9]; 500 mg, fasting
  total exposure (AUC): ~318 µg·h/mL
[9]; 500 mg, fed
  total exposure (AUC): approximately 285 μg·h/mL
[9]; human, in vivo, po
  tmax, median: ~3.00 h
[9]; human, in vivo, po, 500 mg
  t1/2, arithmetic mean ± SD: ~11.8 h
[9]; single oral 500 mg (2×250 mg), fasting
  tmax, median: 3.00 h
[9]; single oral 500 mg (2×250 mg), fed
  tmax, median: 3.50 h
S. aureus [10]; FA-resistant strains
  MICs of resistant S. aureus strains: > 256 µg/mL
S. aureus [10]; S. aureus, without protein
  actual MIC: < 0.25 µg/mL
S. aureus [10]; S. aureus
  MIC90: 0.12 µg/mL (≈ 0.232 µM)
[11]
  MIC: ≥ 2 µg/mL
[12]
  MIC values range: 0.06 to 32 µg/mL
[13]
  Protein binding: 95-97% and 96-98%
